Source: patent US20120270770A1, “Anti-angiogenic peptides and their uses” (priority 2010, published 2012)
“Also recorded” adds a separate entry of the source. Where a SMILES comes first, the peptide text is derived from it.

Experiments:
[1] = tested on: angiogenesis in Matrigel deposits imbibed with fibroblast growth factor 1 (FGF1); test: Matrigel deposit angiogenesis assay (FGF1-loaded Matrigel implanted in mice, histology score); format: in vivo; parameters: key to top level score reached in Matrigel deposits: ++++: This system ranks each sample using a 0 to 4 plus (+) scale; B in FIG. 13 would yield a score of +++; no + sign would yield a value of 0, as in A in FIG. 13; settings: for angiogenic activity score, Sample 1 / angiogenic activity score, Sample 2 / angiogenic activity score, Sample 3 / angiogenic activity score, Sample 4 / top level score reached in Matrigel deposits / angiogenic activity score, Sample 5 / angiogenic activity score, Sample 6 / angiogenic activity score, Sample 7 / angiogenic activity score, Sample 8: 0 to 4 plus scale; for angiogenic activity score, Sample 1 / angiogenic activity score, Sample 2 / angiogenic activity score, Sample 3 / angiogenic activity score, Sample 4 / angiogenic activity score, Sample 5 / angiogenic activity score, Sample 6 / angiogenic activity score, Sample 7 / angiogenic activity score, Sample 8 / angiogenic / anti-angiogenic activity in Matrigel deposit (in words): 20 μg peptide IP daily; for angiogenic activity score, Sample 1 / angiogenic activity score, Sample 2 / angiogenic activity score, Sample 3 / angiogenic activity score, Sample 4 / angiogenic activity score, Sample 5 / angiogenic activity score, Sample 6 / angiogenic activity score, Sample 7 / angiogenic activity score, Sample 8: Day 14 histology; for % Diff.: difference of mean score from control (2.50); for angiogenic activity score, Mean: mean of samples, control mean 2.50; for angiogenic / anti-angiogenic activity in Matrigel deposit (in words): histology, Day 14
Description: Matrigel deposits were surgically implanted on both sides of 4 mice per treatment yielding a possible 8 samples per treatment. Matrigel is a polymeric substance that appears to be relatively inert in animals and it can serve as a matrix that allows experimentation in vivo on many different difficult-to-study-processes. Prior to implantation, the Matrigel was allowed to imbibe fibroblast growth factor 1 (FGF1). This protein is a powerful inducer of angiogenesis and its presence guarantees that sufficient activity will be observed within the allotted time period of the experiment. Therefore, any inhibition of angiogenesis is likely to be a real phenomenon as the experiment has been set to heavily favor the angiogenic process. Angiogenesis occurs by day 14 and beginning Day 1 (Day 0=day of implantation), mice were injected IP daily with 20 μg of peptide in 100 μl of normal saline. The animals were sacrificed on Day 14, and each Matrigel deposit divided longitudinally and fixed in 10% buffered formalin. One of the halves of each Matrigel deposit was then sectioned. Read-out for this experiment was via histology, with semi-quantitative/qualitative counting of migration of cells and their subsequent assembly of lumenal structures within the Matrigel. This method allows us to observe the full physiologic spectrum of effects, and was useful in delineating trends. […] In FIG. 13, A represents what a section of a Matrigel gel deposit looks like under the microscope soon after surgical implantation. The sample in B is derived from the control at the conclusion of the experiment. Intense activity is present with numerous cells attaching to the surface of the Matrigel. Cells begin to penetrate the deposit and organize into discrete structures that coalesce to form the beginning of tubes twisting and branching in many directions. These venules eventually connect with the system carrying blood and it is possible to see red cells and lymphocytes within them. This process is called “arborization”, derived from the fact that the angiogenic process most closely resembles the growth of roots and branches of trees. All but two of the peptide treatments looked, more or less, like B (all the peptides of Table 1 were tested). In C, a typical sample from the peptide C-1 treatment is shown. […] Consequently, there were far fewer cells and cellular structures inside of the Matrigel. […] There were large regions of Matrigel that had no visibly associated structures and few single cells, including on the periphery, while other regions had some limited activity.
This system ranks each sample using a 0 to 4 plus (+) scale. Thus, B in FIG. 13 would yield a score of +++ while no + sign would yield a value of 0, as in A in FIG. 13. In Table 3 the data is modified to a numerical form and plotted averages are shown.

[2] = Fate of radiolabeled (3H/14C) peptide after injection into the animal; format: in vivo; settings: no matter the route of administration
Description: Lytic peptides are active in eliminating tumor-derived cells by causing direct osmotic lysis. […] Indeed, that is the case. […] However, in some cases there was little activity. To determine what might be happening in vivo, radiolabeled D2A21 was chemically synthesized with all alanines labeled with either ^3H or ^14C. Since the labeling pattern was asymmetric, it enabled us to follow the physical state of the peptide once it had been injected into the animal by comparing the unique ratios of ^3H/^14C that would result if the peptide experienced proteolysis. […] The possibility emerged that the systemic in vivo anti-cancer activity was retained within specific fragments of D2A21.

[3] = tested on: HMEC-1 monolayer; test: Endothelial cell migration assay (scraped HMEC-1 monolayer); format: cell-based; settings: NT = 1.00
Method: The results in Table 6 are gathered from an in vitro experiment and show the ability of JC 15 10N to inhibit the migration of endothelial cells (the “minus” values). This migration is a requisite step in the formation of new blood vessels. […] The shading indicates the presence of VEGF ([…] endothelial growth factor). This growth factor causes endothelial cell migration and consequent assembly of blood vessels.
Cell migration was performed as previously described. In brief, a HMEC-1 monolayer was scraped making a 1-mm wide denuded area then stimulated with VEGF and 10N and the area unoccupied by the migrating cells was determined using MetaMorph and expressed as a percentage of control.

[4] = tested on: Stage IV pancreatic cancer; settings: cited from earlier work

| time to hydrolysis of labeled peptide to fragments of various lengths [2] | Molecule | angiogenic activity score, Sample 1 [1] | angiogenic activity score, Sample 2 [1] | angiogenic activity score, Sample 3 [1] | angiogenic activity score, Sample 4 [1] | % Diff. [1] | angiogenic activity score, Mean [1] | top level score reached in Matrigel deposits [1] | angiogenic activity score, Sample 5 [1] | angiogenic activity score, Sample 6 [1] | angiogenic activity score, Sample 7 [1] | angiogenic activity score, Sample 8 [1] | angiogenic / anti-angiogenic activity in Matrigel deposit (in words) [1] | Endothelial Cell Migration ([3]; VEGF 75 ng/ml, second series) | Endothelial Cell Migration ([3]; VEGF 150 ng/ml, first series) | Endothelial Cell Migration ([3]; VEGF 150 ng/ml, third series) | longest survival on treatment ([4]; patients with Stage IV pancreatic cancer on gemcitabine treatment) | Median survival time ([4]; patients with Stage IV pancreatic cancer treated with gemcitabine (untreated 4.5 months)) |
| --- | --- | --- | --- | --- | --- | --- | --- | --- | --- | --- | --- | --- | --- | --- | --- | --- | --- | --- |
| – | LDLQAPLYKKIIKKLLES [PF-2] | 2 | 3 | 2 | 3 | 0.00% | 2.50 | – | – | – | – | – | – | – | – | – | – | – |
| – | PTAQLIATLKNGRKI [PF-1] | 2 | 3 | 2 | 3 | 0.00% | 2.50 | – | – | – | – | – | – | – | – | – | – | – |
| – | KKFKKFAKKFAKFAF [JC15-15C] | 2 | 3 | 2 | 3 | 10.00% | 2.75 | ++++ | 2 | 3 | 3 | 4 | levels of activity higher than the control; also recorded: cannot exert an anti-angiogenic effect | – | – | – | – | – |
| – | FAKKFAKFAF [JC15-10C] | 2 | 3 | 2 | 3 | 0.00% | 2.50 | – | 2 | 3 | 2 | 3 | inactive | – | – | – | – | – |
| within minutes | C[C@H](NC(=O)[C@H](Cc1ccccc1)NC(=O)[C@H](C)NC(=O)[C@H](Cc1ccccc1)NC(=O)[C@H](CCCCN)NC(=O)[C@H](C)NC(=O)[C@H](Cc1ccccc1)NC(=O)[C@H](CCCCN)NC(=O)[C@H](CCCCN)NC(=O)[C@H](C)NC(=O)[C@H](Cc1ccccc1)NC(=O)[C@H](CCCCN)NC(=O)[C@H](CCCCN)NC(=O)[C@H](Cc1ccccc1)NC(=O)[C@H](CCCCN)NC(=O)[C@H](CCCCN)NC(=O)[C@H](C)NC(=O)[C@H](Cc1ccccc1)NC(=O)[C@H](CCCCN)NC(=O)[C@H](CCCCN)NC(=O)[C@H](C)NC(=O)[C@@H](N)Cc1ccccc1)C(=O)N[C@@H](Cc1ccccc1)C(=O)O [JC15] (H-FAKKFAKKFKKFAKKFAKFAFAF-OH; N-terminus and C-terminus assumed) | – | – | – | – | – | – | – | – | – | – | – | – | – | – | – | – | – |
| – | MFGNGKGYRGKRATTVTGTP [PL-2] | 2 | 3 | 2 | 3 | −2.86% | 2.43 | – | 2 | 3 | 2 | – | – | – | – | – | – | – |
| – | QAWDSQSPHAHGYIPSKFPNKNLKKNY [PL-1] | 2 | 3 | 2 | 3 | 0.00% | 2.50 | – | 2 | 3 | 2 | 3 | – | – | – | – | – | – |
| – | IVRRADRAAVPIVNLKDELL [C-1] | 2 | 2 | 3 | 1 | −26.67% | 1.83 | – | 2 | 1 | – | – | far fewer cellular associations; also recorded: possess anti-angiogenic activity | – | – | – | – | – |
| – | vascular endothelial growth factor [VEGF, reference compound] | – | – | – | – | – | – | – | – | – | – | – | – | 0.69 | 0.78 | 0.77 | – | – |
| – | FAKKFAKKFKKF [JC15-12N] | 4 | 2 | 3 | 2 | 8.57% | 2.71 | ++++ | 3 | 2 | 3 | – | levels of activity higher than the control; also recorded: cannot exert an anti-angiogenic effect | – | – | – | – | – |
| – | Nc1ccn([C@@H]2O[C@H](CO)[C@@H](O)C2(F)F)c(=O)n1 [gemcitabine] | – | – | – | – | – | – | – | – | – | – | – | – | – | – | – | 19 months | 4.8 months |
| – | FAKKFAKKFKKFAKKFAK [JC15-18N] | 3 | 2 | 3 | 3 | 10.00% | 2.75 | – | – | – | – | – | levels of activity higher than the control; also recorded: cannot exert an anti-angiogenic effect | – | – | – | – | – |
